Experiments:
[1] = human gut metagenome, 24 h, 2 µM
[2] = (§1) The drug is tested on Z-006 corresponding to mouse gut metagenome with ENA study accession number: PRJEB37062 and ENA sample accession number: ERS12561806 for biotransformation under anaerobic condition. The drug concentrations were measured over 9 timepoints collected between 0 and 24 hours of incubation by liquid-chromatography-coupled mass spectrometry (LC–MS); conditions: 2 µM
[3] = as §1, with “Z-018” for “Z-006”, “pig” for “mouse”, “ERS12561817” for “ERS12561806”; conditions: 2 µM
[4] = human gut metagenome, 24 h, 2 µM; remark: listed apart in the source
[5] = human gut metagenome, 24 h, 2 µM; remark: listed apart in the source
[6] = as §1, with “WLS-038” for “Z-006”, “human” for “mouse”, “ERS12561745” for “ERS12561806”; conditions: 2 µM
[7] = as §1, with “WLS-370” for “Z-006”, “human” for “mouse”, “ERS12561793” for “ERS12561806”; conditions: 2 µM
[8] = as §1, with “WLS-310” for “Z-006”, “human” for “mouse”, “ERS12561785” for “ERS12561806”; conditions: 2 µM
[9] = as §1, with “WLS-073” for “Z-006”, “human” for “mouse”, “ERS12561749” for “ERS12561806”; conditions: 2 µM
[10] = as §1, with “Z-003” for “Z-006”, “pig” for “mouse”, “ERS12561803” for “ERS12561806”; conditions: 2 µM
[11] = human gut metagenome, 24 h, 2 µM; remark: listed apart in the source
[12] = as §1, with “WLS-220” for “Z-006”, “human” for “mouse”, “ERS12561769” for “ERS12561806”; conditions: 2 µM
[13] = human gut metagenome, 24 h, 2 µM; remark: listed apart in the source
[14] = as §1, with “Z-025” for “Z-006”, “rabbit” for “mouse”, “ERS12561824” for “ERS12561806”; conditions: 2 µM
[15] = human gut metagenome, 24 h, 2 µM; remark: listed apart in the source
[16] = as §1, with “WLS-006” for “Z-006”, “human” for “mouse”, “ERS12561741” for “ERS12561806”; conditions: 2 µM
[17] = as §1, with “WLS-039” for “Z-006”, “human” for “mouse”, “ERS12561746” for “ERS12561806”; conditions: 2 µM
[18] = as §1, with “WLS-090” for “Z-006”, “human” for “mouse”, “ERS12561753” for “ERS12561806”; conditions: 2 µM
[19] = human gut metagenome, 24 h, 2 µM; remark: listed apart in the source
[20] = as §1, with “WLS-240” for “Z-006”, “human” for “mouse”, “ERS12561773” for “ERS12561806”; conditions: 2 µM
Further: call rule not given here.

Bacterial Biotransformation [1]: Compound metabolized | Bacterial Biotransformation [2]: Compound NOT metabolized | Bacterial Biotransformation [3]: Compound metabolized | Bacterial Biotransformation [4]: Compound NOT metabolized | Bacterial Biotransformation [5]: Compound metabolized | Bacterial Biotransformation [6]: Compound NOT metabolized | Bacterial Biotransformation [7]: Compound metabolized | Bacterial Biotransformation [8]: Compound metabolized | Bacterial Biotransformation [9]: Compound metabolized | Bacterial Biotransformation [10]: Compound metabolized | Bacterial Biotransformation [11]: Compound metabolized | Bacterial Biotransformation [12]: Compound NOT metabolized | Bacterial Biotransformation [13]: Compound metabolized | Bacterial Biotransformation [14]: Compound NOT metabolized | Bacterial Biotransformation [15]: Compound metabolized | Bacterial Biotransformation [16]: Compound metabolized | Bacterial Biotransformation [17]: Compound metabolized | Bacterial Biotransformation [18]: Compound metabolized | Bacterial Biotransformation [19]: Compound metabolized | Bacterial Biotransformation [20]: Compound metabolized
Structure (SMILES): OC(CCN1CCCCC1)(c1ccccc1)C1CCCCC1 (stereo not given) [TRIHEXYPHENIDYL]

Source: ChEMBL document CHEMBL5724914, “Linking interpersonal differences in gut microbiota composition and drug biotransformation activity” (2024)
